Measured values from publication PMC3665789 (PLoS ONE, 2013).
Where two headings read alike, the source gives them in different places.

Key:
[1] = tested on: HSV-2 wild-type RV-24 (clinical isolate); conditions: HEL cells; HSV-2 RV-24; CPE
[2] = tested on: HIV-1 NL4.3^2G12res. (X4); conditions: read-out: EC50 (µM ± SEM); MT-4 cells; NL4.3 resistant to mAb 2G12; MTS/PES
HIV-1 R5 BaL in PBMCs = assay: Susceptibility of pre-treated PBMCs for HIV-1 infection; conditions: washed, HIV-1 BaL, day 7
Protocol: The next day, cells were collected, extensively washed in culture medium, resuspended (5×10^5 cells/450 µl) and seeded in a 48-well plate. Immediately afterwards, 50 µl of HIV-1 R5 strain BaL (500 pg/well) was added and cells were cultures for 7 days. Supernatant was collected 7 days post virus infection and viral replication was determined by p24 HIV-1 Ag ELISA.

HSV-2 wild-type = conditions: read-out: Median EC50; median over HSV-2 wild-type strains; HEL cells
[3] = tested on: HSV-1 wild-type RV-174 (clinical isolate); conditions: HEL cells; HSV-1 RV-174; CPE
HSV-2 strain G = assay: Time-of-drug-addition study, HSV-2; assay type: cell-based; conditions: HEL cells; LabyA1 19 µM, ACV 35 µM; after 3 days
Protocol: TOA experiments for HSV-2 were performed identically as the viral replication assays, but each compound separately (LabyA1 or ACV) was added together with the virus (0 h) or after 2 h post-infection. The reference compound was added at least 100 times its EC50-value, as obtained in the HEL cell line (Table 3).

HIV-1 IIIB (X4) = conditions: read-out: EC50 (µM ± SEM), MT-4 cells, MTS/PES method
[4] = tested on: HIV-induced cell-cell syncytia formation (HUT-78/IIIB and SupT1 cells); assay: Giant cell cocultivation assay (HUT-78/IIIB + SupT1); assay type: cell-based, HIV-1
Protocol: The cocultivation experiments were performed as described previously. In brief, LabyA1 was diluted in cell culture medium and 100 µl was added in 96-well plate (BD, Falcon) along with the SupT1 T cells (1×10^5 cells/50 µl). The same amount of persistently HIV-infected HUT-78/IIIB cells were seeded and incubated at 37°C for 24 h. The next day, giant cell formation was scored microscopically and in addition the depletion of the CD4^+ SupT1 cells was measured by flow cytometry.
The depletion of the target CD4^+ SupT1 T cells in the cocultivation assays was measured using PE-conjugated […] (BD Biosciences). The cells were incubated for 30 minutes at room temperature with anti-CD28-PE. After several washing steps, the cells were fixed with a 1% paraformaldehyde solution and analyzed by flow cytometry.

[5] = tested on: laboratory-adapted HIV strains
[6] = tested on: HSV-2 wild-type RV-124 (clinical isolate); conditions: HEL cells; HSV-2 RV-124; CPE
HSV-2 = assay: Cellular binding experiment: pre-treatment of cells, compound removed, HSV-2 infection; assay type: cell-based; conditions: data not shown
[7] = tested on: HIV-1 ID12 (clinical isolate; R5); conditions: PBMCs; ID12, group M subtype A/E; p24 Ag ELISA
[8] = Cytotoxicity assay (MTS/PES); assay type: cell-based, human; conditions: HEL cells, 3 days
Protocol: Cytotoxicity in PBMCs (3 days), MT-4 (5 days), HUT-78 (1 day), C8166-(5 days), HEL (3 days) and Daudi cells (3 days) was measured using the MTS/PES method. The duration of the assays is given between brackets.

[9] = tested on: DC-SIGN-mediated transmission of HIV-1 HE; conditions: for p24 Ag concentration: without compound 263.9 ng/ml
Protocol: Raji.DC-SIGN^+ cells (200 µl; 2.5×10^6 cells/ml) were exposed to high amounts of HIV-1 HE (100 µl; p24, ∼3×10^6 pg/ml) for 1 h at 37°C. Unbound virus from the Raji.DC-SIGN^+ cells was removed by washing twice with cell culture medium. In the meantime, 100 µl of various concentrations of LabyA1 were added in a 96-well plate and incubated for 1 h with the C8166 target T cells (50 µl; 2×10^6 cells/ml). The same amount of virus exposed Raji.DC-SIGN^+ cells (Raji.DC-SIGN/HE) were mixed with the antiviral drug exposed C8166 target T cells.

[10] = tested on: HIV-1 US2 (clinical isolate; R5/X4); conditions: PBMCs; US2, group M subtype B; p24 Ag ELISA
[11] = tested on: HIV-1 NL4.3 binding to CD4+ SupT1 cells; assay type: cell-based; conditions: LabyA1 9.6 µM, sCD4 10 µg/ml, AMD3100 12 µM; no compound MFI 9.8, background 3.9
X4 HIV-1 gp120 IIIB = biological target: T1, X4 HIV-1 gp120 IIIB (Human immunodeficiency virus type 1 group M subtype B, UniProt P04578); assay: Surface plasmon resonance; assay type: binding
T1 construct: Recombinant gp120 proteins from X4 HIV-1 IIIB strain; purchased ImmunoDiagnostics Inc., Woburn, MA
Protocol: (§1) Recombinant gp120 proteins from X4 HIV-1 IIIB strain (ImmunoDiagnostics Inc., Woburn, MA) and from R5 HIV-1 strains ADA and YU2 (ImmunoDiagnostics Inc.) were covalently immobilized on a CM5 sensor chip in 10 mM sodium acetate, pH 4.0, using standard amine coupling chemistry. […] A reference flow cell was used as a control for non-specific binding and refractive index changes. […] Samples (in duplicate) were injected for 2 minutes at a flow rate of 45 µl/min and the dissociation was followed for 4 minutes. Several buffer blanks were used for double referencing. The CM5 sensor chip surface was regenerated with a single injection of 50 mM NaOH. A DMSO concentration series was included to eliminate the contribution of DMSO to the measured response. […] The experimental data were fit using the 1∶1 binding model Biacore T200 Evaluation software 1.0 to determine the binding kinetics.

R5 HIV-1 gp120 YU2 = biological target: T2, R5 HIV-1 gp120 YU2 (Human immunodeficiency virus type 1 group M subtype B, UniProt P35961); assay: Surface plasmon resonance; assay type: binding
T2 construct: Recombinant gp120 proteins from X4 HIV-1 IIIB strain (ImmunoDiagnostics Inc., Woburn, MA) and from R5 HIV-1 strains ADA and YU2; purchased ImmunoDiagnostics Inc
Protocol: as §1

SMILES: C/C=C1\NC(=O)[C@H](Cc2ccccc2)NC(=O)[C@@H]2CCCN2C(=O)[C@H](C(C)C)NC(=O)[C@H](Cc2c[nH]c3ccccc23)NC(=O)[C@]23CSC[C@H](NC1=O)C(=O)N[C@H](C(=O)O)CSSC[C@H](NC(=O)[C@@H]1CSC[C@]4(C[C@H](N)C(=O)N[C@@H](CC(N)=O)C(=O)N[C@@H](C)C(=O)N4)C(=O)N[C@@H](C(C)C)C(=O)N[C@@H](Cc4c[nH]c5ccccc45)C(=O)N[C@@H](CCC(=O)O)C(=O)N1)C(=O)N[C@@H](C2)C(=O)N[C@@H]([C@@H](C)O)C(=O)NCC(=O)N3 [LabyA1, labyrinthopeptin A1]
- EC50 [1]: 410 ± 280 nM
- EC50 [2]: 2.2 ± 0.3 µM
- p24 HIV-1 Ag production after pre-treatment (HIV-1 R5 BaL in PBMCs; PBMCs pre-treated 24 h with 1.9 µM): 12.26 ± 4.61 ng/mL
- p24 HIV-1 Ag production after pre-treatment (HIV-1 R5 BaL in PBMCs; PBMCs pre-treated 24 h with 9.6 µM, no compound 12.69±4.83): 15.37 ± 3.75 ng/mL
- EC50 (HSV-2 wild-type): 410 nM
- EC50 [3]: 2700 ± 1000 nM
- HSV-2 induced CPE, compound given simultaneously with virus (0 h) (HSV-2 strain G): no CPE or viral replication were observed
- antiviral activity, compound added after 2 h adsorption period (HSV-2 strain G): significant decrease
- EC50 (HIV-1 IIIB (X4)): 2 ± 0.6 µM
- activity in cell-cell fusion assay ([4]; 0.96 µM, light microscopy): no activity was observed
- giant cell formation ([4]; 4.8 µM, light microscopy): some giant cells were formed
- giant cell formation ([4]; 24 µM, light microscopy): completely inhibited
- EC50 ([4]; 24 h coculture, CD28 flow cytometry, read-out: EC50, survival of SupT1 T cells in coculture with HUT-78/IIIB cells): 2500 nM
- EC50 ([5]; read-out: EC50 range, range over cell-line adapted HIV strains (Table 1)): 790 to 3300 nM
- EC50 ([5]; read-out: Median EC50, median over laboratory-adapted HIV strains in MT-4, PBMCs, MDM): 1900 nM
- EC50 [6]: 1400 ± 400 nM
- inhibition of HSV-2 replication after pre-treatment of cells for 1 h and removal of compound (HSV-2): lost its ability to inhibit HSV-2 replication
- EC50 [7]: 1200 ± 800 nM
- CC50 [8]: > 48000 nM
- giant cell formation ([9]; 9.6 µM): fully protected the cells from giant cell formation
- p24 Ag concentration ([9]; 9.6 µM): < 25 pg/mL
- inhibitory effect ([9]; 1.9 and 0.19 µM): not detectable
- p24 Ag concentration ([9]; 1.9 and 0.19 µM): 393700 pg/mL
- EC50 ([9]; read-out: EC50, DC-SIGN-mediated transmission and subsequent replication of HIV-1, Raji.DC-SIGN/HE cocultured with C8166 T cells, 24 h): 4100 nM
- EC50 [10]: 700 ± 190 nM
- virus binding, mean fluorescence intensity (MFI) of anti-gp120 (9205) mAb [11]: 9.2
- Kd (X4 HIV-1 gp120 IIIB): 7800 ± 2100 nM
- Kd (R5 HIV-1 gp120 YU2): 9800 ± 1600 nM
